Experiment [1] relates to HT-1080. Kind of experiment: Anti-proliferative activity against human tumor cell line HT1080. The class given is functional, cell-based.
The test system of experiment [2] is MDA-MB-435. Nature of the experiment: Anti-proliferative activity against human tumor cell line MDA-435. The class given is functional, cell-based.
Experiment [3] concerns the target T1, Histone deacetylase (HDAC1 and HDAC2) (Homo sapiens, UniProt Q13547+Q92769). Kind of experiment: Inhibition of human histone deacetylase (mixture of HDAC1 and HDAC2) prepared from K562 erythroleukemia cells. Format: cell-based.
For experiment [4], the target named is T1, Histone deacetylase (HDAC1 and HDAC2). Nature of the experiment: Inhibition of human histone deacetylase (mixture of HDAC1 and HDAC2) prepared from K562 erythroleukemia cells. Format: cell-based. The conditions noted are these: concentration not given here.

pIC50: −log10 of the molar value.

Results on three compounds are retold here after ChEMBL document CHEMBL1134990, “Trifluoromethyl ketones as inhibitors of histone deacetylase” (Bioorg Med Chem Lett, 2002).

For orientation: pIC50 means −log10 of the IC50, conventionally taken in molar units. Lower therefore signals a large IC50. One may read the IC50 as the point on the concentration scale where inhibition reaches its midpoint. Usually inhibition stands for the share of the control response that was lost under treatment.

T1 sequence (Q13547 whole entry, looked up): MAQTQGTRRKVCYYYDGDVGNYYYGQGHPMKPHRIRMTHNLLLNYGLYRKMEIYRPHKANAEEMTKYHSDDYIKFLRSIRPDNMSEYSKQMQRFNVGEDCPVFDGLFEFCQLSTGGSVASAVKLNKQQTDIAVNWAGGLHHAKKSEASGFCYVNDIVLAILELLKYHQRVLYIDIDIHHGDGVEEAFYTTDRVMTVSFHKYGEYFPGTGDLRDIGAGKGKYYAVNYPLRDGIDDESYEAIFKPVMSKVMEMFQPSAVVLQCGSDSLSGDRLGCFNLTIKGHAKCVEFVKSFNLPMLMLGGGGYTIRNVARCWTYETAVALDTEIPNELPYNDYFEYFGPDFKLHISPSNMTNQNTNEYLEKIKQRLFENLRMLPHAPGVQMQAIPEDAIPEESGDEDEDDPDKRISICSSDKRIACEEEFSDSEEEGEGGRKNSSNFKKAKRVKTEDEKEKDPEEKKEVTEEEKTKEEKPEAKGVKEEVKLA
T1 sequence (Q92769 whole entry, looked up): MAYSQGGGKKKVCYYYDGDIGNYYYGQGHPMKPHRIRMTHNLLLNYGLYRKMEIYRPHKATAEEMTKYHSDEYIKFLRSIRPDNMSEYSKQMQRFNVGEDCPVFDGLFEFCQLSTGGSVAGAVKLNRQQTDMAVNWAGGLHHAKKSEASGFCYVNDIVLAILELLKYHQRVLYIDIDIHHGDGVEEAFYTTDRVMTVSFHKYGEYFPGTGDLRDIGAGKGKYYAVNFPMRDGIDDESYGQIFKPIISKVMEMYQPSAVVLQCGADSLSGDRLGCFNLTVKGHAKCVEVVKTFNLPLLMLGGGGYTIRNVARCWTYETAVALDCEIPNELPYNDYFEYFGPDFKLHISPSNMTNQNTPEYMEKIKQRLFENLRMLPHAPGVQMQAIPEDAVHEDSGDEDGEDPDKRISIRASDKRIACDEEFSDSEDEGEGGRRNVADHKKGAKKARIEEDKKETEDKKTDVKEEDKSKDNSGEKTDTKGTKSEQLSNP

Consider `O=C(CCCCCCC(=O)C(F)(F)F)Nc1ccccc1`, for which the pIC50 in experiment [1] was 5.66; in experiment [2], 4.82.

As for `O=C(CCCCCCC(=O)C(F)(F)F)Nc1cccc(-c2ccccc2)c1`, the pIC50 in experiment [1] was 4.80; in experiment [2] it was 4.64. In addition, in experiment [3], the IC50 worked out at 0.38 µM.

On to `O=C(CCCCCCCOc1ccc(-c2ccccc2)cc1)C(F)(F)F`, for which the inhibition in experiment [4] turned out to be 72%.
